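Five compound concentrations were applied to cells in 96-well plates for 48 hours; endpoints were derived by simple linear interpolation of the resulting dose-response curve. Abbreviation: GI50, concentration required for 50% inhibition of growth.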 The source made the active and inactive calls. No stated cut-off is given here; in the data, active = GI50 up to about 1.1 µM and inactive = higher.
What was measured:
Test in all cases: DTP human tumour cell line panel, 48 h
SK-MEL-2 = tested on: SK-MEL-2
HOP-92 = tested on: HOP-92
MDA-MB-435 = tested on: MDA-MB-435
UO-31 = tested on: UO-31
OVCAR-3 = tested on: OVCAR-3
OVCAR-5 = tested on: OVCAR-5
MDA-N = tested on: MDA-N
SNB-19 = tested on: SNB-19
SK-MEL-5 = tested on: SK-MEL-5
T47D = tested on: T47D
RPMI-8226 = tested on: RPMI-8226
HCT-116 = tested on: HCT-116
786-0 = tested on: 786-0
RXF 393 = tested on: RXF 393
HCC 2998 = tested on: HCC 2998
MOLT-4 = tested on: MOLT-4
CAKI-1 = tested on: CAKI-1
NCI-H522 = tested on: NCI-H522
SK-MEL-28 = tested on: SK-MEL-28
HT-29 = tested on: HT-29
BT-549 = tested on: BT-549
SR = tested on: SR
CCRF-CEM = tested on: CCRF-CEM
A549 = tested on: A549
NCI/ADR-RES = tested on: NCI/ADR-RES
NCI-H460 = tested on: NCI-H460
PC-3 = tested on: PC-3
UACC-62 = tested on: UACC-62
SN12C = tested on: SN12C
SW-620 = tested on: SW-620
COLO 205 = tested on: COLO 205
A498 = tested on: A498
U-251 = tested on: U-251
NCI-H23 = tested on: NCI-H23
SF-295 = tested on: SF-295
Hs-578T = tested on: Hs-578T
ACHN = tested on: ACHN
Malme-3M = tested on: Malme-3M
SNB-75 = tested on: SNB-75
UACC-257 = tested on: UACC-257
SK-OV-3 = tested on: SK-OV-3
SF-268 = tested on: SF-268
OVCAR-4 = tested on: OVCAR-4
M14 = tested on: M14
K562 = tested on: K562
HOP-62 = tested on: HOP-62
SF-539 = tested on: SF-539
NCI-H226 = tested on: NCI-H226
HCT-15 = tested on: HCT-15
OVCAR-8 = tested on: OVCAR-8
KM12 = tested on: KM12
EKVX = tested on: EKVX
MCF7 = tested on: MCF7
IGROV-1 = tested on: IGROV-1
DU-145 = tested on: DU-145
TK-10 = tested on: TK-10
HL-60 = tested on: HL-60
LOX IMVI = tested on: LOX IMVI
MDA-MB-231 = tested on: MDA-MB-231

With CCc1c(CN)c(CC)c(CNC2=NCCN2)c(CC)c1CNC1=NCCN1 the GI50 (SK-MEL-2) was > 100 µM (inactive), the GI50 (HOP-92) was > 100 µM (inactive) and the GI50 (MDA-MB-435) was > 100 µM (inactive). The GI50 (UO-31) was > 100 µM (inactive), the GI50 (OVCAR-3) was > 100 µM (inactive) and the GI50 (OVCAR-5) was > 100 µM (inactive). For the same molecule, the GI50 (MDA-N) was > 100 µM (inactive), the GI50 (SNB-19) was > 100 µM (inactive) and the GI50 (SK-MEL-5) was > 100 µM (inactive). For the same molecule, the GI50 (T47D) was > 100 µM (inactive), the GI50 (RPMI-8226) was > 100 µM (inactive) and the GI50 (HCT-116) was > 100 µM (inactive). The GI50 (786-0) was > 100 µM (inactive), the GI50 (RXF 393) was > 100 µM (inactive) and the GI50 (HCC 2998) was > 100 µM (inactive). The GI50 (MOLT-4) was > 100 µM (inactive), the GI50 (CAKI-1) was > 100 µM (inactive) and the GI50 (NCI-H522) was > 100 µM (inactive). The GI50 (SK-MEL-28) was > 100 µM (inactive), the GI50 (HT-29) was > 100 µM (inactive) and the GI50 (BT-549) was > 100 µM (inactive). The GI50 (SR) was > 100 µM (inactive), the GI50 (CCRF-CEM) was > 100 µM (inactive) and the GI50 (A549) was > 100 µM (inactive). The GI50 (NCI/ADR-RES) was > 100 µM (inactive), the GI50 (NCI-H460) was > 100 µM (inactive) and the GI50 (PC-3) was > 100 µM (inactive). For the same molecule, the GI50 (UACC-62) was > 100 µM (inactive), the GI50 (SN12C) was > 100 µM (inactive) and the GI50 (SW-620) was > 100 µM (inactive). The GI50 (COLO 205) was > 100 µM (inactive), the GI50 (A498) was > 100 µM (inactive) and the GI50 (U-251) was > 100 µM (inactive). For the same molecule, the GI50 (NCI-H23) was > 100 µM (inactive), the GI50 (SF-295) was > 100 µM (inactive) and the GI50 (Hs-578T) was > 100 µM (inactive). The GI50 (ACHN) was > 100 µM (inactive), the GI50 (Malme-3M) was > 100 µM (inactive) and the GI50 (SNB-75) was > 100 µM (inactive). For the same molecule, the GI50 (UACC-257) was > 100 µM (inactive), the GI50 (SK-OV-3) was > 100 µM (inactive) and the GI50 (SF-268) was > 100 µM (inactive). The GI50 (OVCAR-4) was > 100 µM (inactive), the GI50 (M14) was > 100 µM (inactive) and the GI50 (K562) was > 100 µM (inactive). The GI50 (HOP-62) was > 100 µM (inactive), the GI50 (SF-539) was > 100 µM (inactive) and the GI50 (NCI-H226) was > 100 µM (inactive). For the same molecule, the GI50 (HCT-15) was over 100 µM, the GI50 (OVCAR-8) was > 100 µM (inactive) and the GI50 (KM12) was > 100 µM (inactive). For the same molecule, the GI50 (EKVX) was > 100 µM (inactive), the GI50 (MCF7) was > 100 µM (inactive) and the GI50 (IGROV-1) was > 100 µM (inactive). For the same molecule, the GI50 (DU-145) was > 100 µM (inactive) and the GI50 (TK-10) was > 100 µM (inactive).
With CNc1nncc2[nH]cnc12 the GI50 (HOP-92) was > 100 µM (inactive), the GI50 (MDA-MB-435) was > 100 µM (inactive) and the GI50 (UO-31) was > 100 µM (inactive). The GI50 (MDA-N) was > 100 µM (inactive), the GI50 (SNB-19) was > 100 µM (inactive) and the GI50 (SK-MEL-5) was > 100 µM (inactive). The GI50 (T47D) was > 100 µM (inactive), the GI50 (RPMI-8226) was > 100 µM (inactive) and the GI50 (HCT-116) was > 100 µM (inactive). The GI50 (786-0) was > 100 µM (inactive), the GI50 (RXF 393) was > 100 µM (inactive) and the GI50 (MOLT-4) was > 100 µM (inactive). For the same molecule, the GI50 (CAKI-1) was > 100 µM (inactive), the GI50 (SK-MEL-28) was > 100 µM (inactive) and the GI50 (HT-29) was > 100 µM (inactive). The GI50 (HL-60) was 32.4 µM (inactive), the GI50 (BT-549) was > 100 µM (inactive) and the GI50 (CCRF-CEM) was > 100 µM (inactive). The GI50 (LOX IMVI) was > 100 µM (inactive), the GI50 (UACC-62) was > 100 µM (inactive) and the GI50 (SN12C) was > 100 µM (inactive). For the same molecule, the GI50 (SW-620) was > 100 µM (inactive), the GI50 (COLO 205) was > 100 µM (inactive) and the GI50 (A498) was > 100 µM (inactive). The GI50 (U-251) was > 100 µM (inactive), the GI50 (Hs-578T) was > 100 µM (inactive) and the GI50 (ACHN) was > 100 µM (inactive). The GI50 (SNB-75) was > 100 µM (inactive), the GI50 (MDA-MB-231) was > 100 µM (inactive) and the GI50 (UACC-257) was > 100 µM (inactive). For the same molecule, the GI50 (SK-OV-3) was > 100 µM (inactive), the GI50 (SF-268) was > 100 µM (inactive) and the GI50 (HCT-15) was over 100 µM. The GI50 (OVCAR-8) was > 100 µM (inactive), the GI50 (KM12) was > 100 µM (inactive) and the GI50 (EKVX) was > 100 µM (inactive). For the same molecule, the GI50 (MCF7) was > 100 µM (inactive), the GI50 (IGROV-1) was > 100 µM (inactive) and the GI50 (DU-145) was > 100 µM (inactive). For the same molecule, the GI50 (TK-10) was > 100 µM (inactive).

From ChEMBL document CHEMBL1201862, “PubChem BioAssay data set” (2004)
